# Data from the supplement of paper PMC11208160.
# Assay: recombinant barcode read abundance after kanamycin selection (control-corrected) (log10(CPM+1)); higher = more efficient recombination; sequences stand for … in AGTGCAGAGAAAATCGGCCAGTTTTCTCTGCCTGCAGTCCGCATGCCGT…AGATTTATGCAGCGGACTGCCTTTCTCCCAAAGTGATAAACCGGACAGTATCATGGACCGGTTTTCCCGGTAATCCGTATTTGCAAGGTTGGTTTCACT; site = the 11-nt target
# In short: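 Duplicate cultures were plated either on chloramphenicol/ampicillin LB agar, serving as control, or on chloramphenicol/ampicillin/kanamycin with 0.1 mM IPTG. These came from a pooled E. coli library co-electroporated with a donor plasmid, each member pairing a target with an IS621 bridge RNA target-binding loop. Recombination efficiency equals averaged, control-corrected counts per million of recombinant-junction barcodes. It is listed as log10(CPM+1).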
# 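Also: IS621 recombinase and bridge RNA in Escherichia coli cells.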
row,Sequence,recombinant barcode read abundance (log10)
1,GGACCTCCTTGGGTTCTAACCTGTTGCCT (site GGACCTCCTAA),0.336
2,GGACCTCCTTGGGTTCTAACCTGTTGCCT (site GGACCTCCTAC),0.251
3,GGACCTCCTTGGGTTCTAACCTGTTGCCT (site GGACCTCCTAG),1.32
4,GGACCTCCTTGGGTTCTAACCTGTTGCCT (site GGACCTCCTAT),0.524
5,GGACGACCTTGGGTTCTAACCTGTTGCCT (site GGACGACCTAG),2.26
6,GGACGACCTTGGGTTCTAACCTGTTGCCT (site GGACGCCCTAG),0.102
7,GGACGACCTTGGGTTCTAACCTGTTGCCT (site GGACGGCCTAG),0.412
8,GGACGACCTTGGGTTCTAACCTGTTGCCT (site GGACGTCCTAG),0.163
9,GGACGTGCTTGGGTTCTAACCTGTTGCCT (site CTCTCGTCTCC),0.0482
10,GGACGTGCTTGGGTTCTAACCTGTTGCCT (site GGACGTGCTAG),1.92
11,GGACTAACTTGGGTTCTAACCTGTTGCCT (site AGACTAACTAA),0.126
12,GGACTAACTTGGGTTCTAACCTGTTGCCT (site GGACTAACTAG),1.95
13,GGAGAGACTTGGGTTCTAACCTGTTGCAT (site ACGTGTCCTCC),0.149
14,GGAGAGACTTGGGTTCTAACCTGTTGCAT (site GGAGAGACTAT),2.79
15,GGAGATTCTTGGGTTCTAACCTGTTGCCT (site GGAGATTCTAG),2.22
16,GGAGATTCTTGGGTTCTAACCTGTTGCCT (site GGAGTTGCTAG),0.0142
17,GGAGCTCCTTGGGTTCTAACCTGTTGCCA (site CGAGCTCCTGG),0.082
18,GGAGCTCCTTGGGTTCTAACCTGTTGCCA (site GGAGCTCCTTG),0.371
19,GGAGGGACTTGGGTTCTAACCTGTTGCGT (site GGAGGGACTAC),2.97
20,GGAGGGACTTGGGTTCTAACCTGTTGCGT (site GGTCGGACTAC),0.0283
21,GGAGTCACTTGGGTTCTAACCTGTTGCGG (site GGAGTCACTCC),2.69
22,GGAGTCACTTGGGTTCTAACCTGTTGCGG (site TTGACACCTAG),0.189

row,Sequence,recombinant barcode read abundance (log10)
1,GGAGTGACTTGGGTTCTAACCTGTTGCTA (site GGAGTGACTAA),0.183
2,GGAGTGACTTGGGTTCTAACCTGTTGCTA (site GGAGTGACTTA),1.61
3,GGATAGCCTTGGGTTCTAACCTGTTGCTT (site GGATAGCCTAA),0.939
4,GGATAGCCTTGGGTTCTAACCTGTTGCTT (site GGATGGACTAA),0.17
5,GGATATACTTGGGTTCTAACCTGTTGCCT (site GGATATACTAG),1.47
6,GGATATACTTGGGTTCTAACCTGTTGCCT (site GGATTTACTAG),0.186
7,GGATATCCTTGGGTTCTAACCTGTTGCTT (site CAGGTGACTCC),0
8,GGATATCCTTGGGTTCTAACCTGTTGCTT (site GGATATCCTAA),0.284
9,GGATCCTCTTGGGTTCTAACCTGTTGCCG (site GGATCCTCTCG),1.45
10,GGATCCTCTTGGGTTCTAACCTGTTGCCG (site GTTTCCTCTCG),0.0317
11,GGATGCACTTGGGTTCTAACCTGTTGCCA (site GGATACACTTG),0.237
12,GGATGCACTTGGGTTCTAACCTGTTGCCA (site GGATCCACTTG),0.00874
13,GGATGCACTTGGGTTCTAACCTGTTGCCA (site GGATGCACTTG),0.953
14,GGATGCACTTGGGTTCTAACCTGTTGCCA (site GGATTCACTTG),0.319
15,GGATGTCCTTGGGTTCTAACCTGTTGCGT (site CTATGTCCTAC),0.29
16,GGATGTCCTTGGGTTCTAACCTGTTGCGT (site GGATGTCCTAC),1.95
17,GGATTCACTTGGGTTCTAACCTGTTGCCA (site GGATACACTTG),0.0986
18,GGATTCACTTGGGTTCTAACCTGTTGCCA (site GGATCCACTTG),0.0631
19,GGATTCACTTGGGTTCTAACCTGTTGCCA (site GGATGCACTTG),0.925
20,GGATTCACTTGGGTTCTAACCTGTTGCCA (site GGATTCACTTG),0.992
21,GGCACGACTTGGGTTCTAACCTGTTGCCT (site GGCACAACTAG),0.274
22,GGCACGACTTGGGTTCTAACCTGTTGCCT (site GGCACCACTAG),0.221

row,Sequence,recombinant barcode read abundance (log10)
1,GGCACGACTTGGGTTCTAACCTGTTGCCT (site GGCACGACTAG),0.323
2,GGCACGACTTGGGTTCTAACCTGTTGCCT (site GGCACTACTAG),0.0541
3,GGCACTCCTTGGGTTCTAACCTGTTGCCT (site GGCACTCCTAG),0.351
4,GGCACTCCTTGGGTTCTAACCTGTTGCCT (site GGCATTCCTAG),0.171
5,GGCACTGCTTGGGTTCTAACCTGTTGCCT (site GGCACAGCTAG),0.332
6,GGCACTGCTTGGGTTCTAACCTGTTGCCT (site GGCACCGCTAG),0.123
7,GGCACTGCTTGGGTTCTAACCTGTTGCCT (site GGCACGGCTAG),0.189
8,GGCACTGCTTGGGTTCTAACCTGTTGCCT (site GGCACTGCTAG),0.34
9,GGCAGATCTTGGGTTCTAACCTGTTGCTT (site GGCAGATCTAA),0.193
10,GGCAGATCTTGGGTTCTAACCTGTTGCTT (site GGCAGCTCTAA),0.043
11,GGCAGATCTTGGGTTCTAACCTGTTGCTT (site GGCAGGTCTAA),0.0248
12,GGCAGATCTTGGGTTCTAACCTGTTGCTT (site GGCAGTTCTAA),0.9
13,GGCAGTCCTTGGGTTCTAACCTGTTGCCG (site GGCAGACCTAG),0.169
14,GGCAGTCCTTGGGTTCTAACCTGTTGCCG (site GGCAGTCCTCG),0.364
15,GGCAGTCCTTGGGTTCTAACCTGTTGCTT (site GGCAGTCCTAA),0.336
16,GGCAGTCCTTGGGTTCTAACCTGTTGCTT (site GGCAGTCCTAG),0.252
17,GGCCGGCCTTGGGTTCTAACCTGTTGCCT (site GGCCGGACTAG),0.0681
18,GGCCGGCCTTGGGTTCTAACCTGTTGCCT (site GGCCGGCCTAG),0.128
19,GGCCGGCCTTGGGTTCTAACCTGTTGCCT (site GGCCGGGCTAG),1.02
20,GGCCGGCCTTGGGTTCTAACCTGTTGCCT (site GGCCGGTCTAG),0.191
21,GGCCGGTCTTGGGTTCTAACCTGTTGCCT (site GGCCGGACTAG),0
22,GGCCGGTCTTGGGTTCTAACCTGTTGCCT (site GGCCGGCCTAG),0.248

row,Sequence,recombinant barcode read abundance (log10)
1,GGCCGGTCTTGGGTTCTAACCTGTTGCCT (site GGCCGGGCTAG),0.0483
2,GGCCGGTCTTGGGTTCTAACCTGTTGCCT (site GGCCGGTCTAG),1.78
3,GGCGTAGCTTGGGTTCTAACCTGTTGCCT (site GACGTAGCTAG),0.416
4,GGCGTAGCTTGGGTTCTAACCTGTTGCCT (site GCCGTAGCTAG),0.624
5,GGCGTAGCTTGGGTTCTAACCTGTTGCCT (site GGCGTAGCTAG),2.37
6,GGCGTAGCTTGGGTTCTAACCTGTTGCCT (site GTCGTAGCTAG),0.227
7,GGCTCCTCTTGGGTTCTAACCTGTTGCCT (site AGCTCCTCTAG),0.849
8,GGCTCCTCTTGGGTTCTAACCTGTTGCCT (site CGCTCCTCTAG),0.0966
9,GGCTCCTCTTGGGTTCTAACCTGTTGCCT (site GGCTCCTCTAG),0.733
10,GGCTCCTCTTGGGTTCTAACCTGTTGCCT (site TGCTCCTCTAG),0.0949
11,GGCTTACCTTGGGTTCTAACCTGTTGCCT (site AGCTTACCTAG),0.0239
12,GGCTTACCTTGGGTTCTAACCTGTTGCCT (site CGCTTACCTAG),0.0687
13,GGCTTACCTTGGGTTCTAACCTGTTGCCT (site GGCTTACCTAG),0.556
14,GGCTTACCTTGGGTTCTAACCTGTTGCCT (site TGCTTACCTAG),0.395
15,GGCTTGTCTTGGGTTCTAACCTGTTGCCT (site GGCATGTCTAG),0.0663
16,GGCTTGTCTTGGGTTCTAACCTGTTGCCT (site GGCTTGTCTAG),0.655
17,GGGAACGCTTGGGTTCTAACCTGTTGCCT (site GGGAACGCTAG),2.85
18,GGGAACGCTTGGGTTCTAACCTGTTGCCT (site GGGAATGCTAG),0.0432
19,GGGACATCTTGGGTTCTAACCTGTTGCCT (site GGGACATCTAG),0.987
20,GGGACATCTTGGGTTCTAACCTGTTGCCT (site GGGGCATCTAG),0.015
